From PubChem BioAssay AID2060905 (Molecular Pharmacology Branch, DTP, NCI, 2025)

Test system: 282377-053-R-J1-PDC complex spheroid viability
Test: Anticancer human tumor 282377-053-R-J1-PDC patient-derived colon adenocarcinoma cell line growth inhibition [RAS]
Details: for IC50: curve of first compound; for viability, T/C: stronger effect = lower value; active means viability on the fitted dose curve at most 10% of control; inactive means the rest
In short: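 Agents were tested in combination matrices in half-log decrements from a top concentration at or near clinical Cmax (10 microM if undetermined). Targets were multi-cell spheroids of tumour lines plus HUVEC and MSC stromal cells.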

[1] = second compound 0.000949 µM, first compound 0.0316 µM
[2] = second compound 0.000949 µM, first compound 0.1 µM
[3] = second compound 0.000949 µM, first compound 0.316 µM
[4] = second compound 0.000949 µM, first compound 1 µM
[5] = second compound 0.003 µM, first compound 0.0316 µM
[6] = second compound 0.003 µM, first compound 0.1 µM
[7] = second compound 0.003 µM, first compound 0.316 µM
[8] = second compound 0.003 µM, first compound 1 µM
[9] = second compound 0.00949 µM, first compound 0.0316 µM
[10] = second compound 0.00949 µM, first compound 0.1 µM
[11] = second compound 0.00949 µM, first compound 0.316 µM
[12] = second compound 0.00949 µM, first compound 1 µM
[13] = second compound 0.03 µM, first compound 0.0316 µM
[14] = second compound 0.03 µM, first compound 0.1 µM
[15] = second compound 0.03 µM, first compound 0.316 µM
[16] = second compound 0.03 µM, first compound 1 µM
[17] = second compound 0.0949 µM, first compound 0.0316 µM
[18] = second compound 0.0949 µM, first compound 0.1 µM
[19] = second compound 0.0949 µM, first compound 0.316 µM
[20] = second compound 0.0949 µM, first compound 1 µM
[21] = second compound 0.3 µM, first compound 0.0316 µM
[22] = second compound 0.3 µM, first compound 0.1 µM
[23] = second compound 0.3 µM, first compound 0.316 µM
[24] = second compound 0.3 µM, first compound 1 µM
[25] = second compound 0.000949 µM, first compound 3.16 µM
[26] = second compound 0.000949 µM, first compound 10 µM
[27] = second compound 0.003 µM, first compound 3.16 µM
[28] = second compound 0.003 µM, first compound 10 µM
[29] = second compound 0.00949 µM, first compound 3.16 µM
[30] = second compound 0.00949 µM, first compound 10 µM
[31] = second compound 0.03 µM, first compound 3.16 µM
[32] = second compound 0.03 µM, first compound 10 µM
[33] = second compound 0.0949 µM, first compound 3.16 µM
[34] = second compound 0.0949 µM, first compound 10 µM
[35] = second compound 0.3 µM, first compound 3.16 µM
[36] = second compound 0.3 µM, first compound 10 µM
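Further: spheroids exposed to agents for seven days before readout.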
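Wherever viability, T/C is given: luminescence viability as percent of DMSO vehicle control wells.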

CCN1CCN(Cc2ccc(Nc3ncc(F)c(-c4cc(F)c5nc(C)n(C(C)C)c5c4)n3)nc2)CC1 + CCn1c(-c2cccnc2C(C)OC)c2c3cc(ccc31)N1CCOC(CC(NC(=O)C(C(C)C)N(C)C(=O)C3(F)CCN(C(=O)C#CC(C)(C)N(C)C)CC3)C(=O)N3CCCC(N3)C(=O)OCC(C)(C)C2)C1
> 1 µM: IC50 (second compound 0.000949 µM) | IC50 (second compound 0.003 µM) | IC50 (second compound 0.00949 µM) | IC50 (second compound 0.03 µM) | IC50 (second compound 0.0949 µM) | IC50 (second compound 0.3 µM)
inactive: viability, T/C (second compound 0.000949 µM, first compound 0.00316 µM) 117% | viability, T/C (second compound 0.000949 µM, first compound 0.01 µM) 100% | viability, T/C [1] 104% | viability, T/C [2] 97.3% | viability, T/C [3] 137% | viability, T/C [4] 229% | viability, T/C (second compound 0.003 µM, first compound 0.00316 µM) 137% | viability, T/C (second compound 0.003 µM, first compound 0.01 µM) 113% | viability, T/C [5] 94.6% | viability, T/C [6] 99% | viability, T/C [7] 144% | viability, T/C [8] 204% | viability, T/C (second compound 0.00949 µM, first compound 0.00316 µM) 111% | viability, T/C (second compound 0.00949 µM, first compound 0.01 µM) 106% | viability, T/C [9] 122% | viability, T/C [10] 90.4% | viability, T/C [11] 156% | viability, T/C [12] 208% | viability, T/C (second compound 0.03 µM, first compound 0.00316 µM) 104% | viability, T/C (second compound 0.03 µM, first compound 0.01 µM) 99.5% | viability, T/C [13] 113% | viability, T/C [14] 110% | viability, T/C [15] 134% | viability, T/C [16] 238% | viability, T/C (second compound 0.0949 µM, first compound 0.00316 µM) 102% | viability, T/C (second compound 0.0949 µM, first compound 0.01 µM) 109% | viability, T/C [17] 120% | viability, T/C [18] 116% | viability, T/C [19] 125% | viability, T/C [20] 250% | viability, T/C (second compound 0.3 µM, first compound 0.00316 µM) 93% | viability, T/C (second compound 0.3 µM, first compound 0.01 µM) 106% | viability, T/C [21] 87.2% | viability, T/C [22] 124% | viability, T/C [23] 160% | viability, T/C [24] 221%

C[C@@H](NC(=O)c1ncnc(N)c1Cl)c1ncc(C(=O)Nc2cc(C(F)(F)F)c(Cl)cn2)s1 + CCn1c(-c2cccnc2C(C)OC)c2c3cc(ccc31)N1CCOC(CC(NC(=O)C(C(C)C)N(C)C(=O)C3(F)CCN(C(=O)C#CC(C)(C)N(C)C)CC3)C(=O)N3CCCC(N3)C(=O)OCC(C)(C)C2)C1
inactive: viability, T/C [1] 111% | viability, T/C [2] 118% | viability, T/C [3] 119% | viability, T/C [4] 90.6% | viability, T/C [25] 80.8% | viability, T/C [26] 64.5% | viability, T/C [5] 112% | viability, T/C [6] 92.7% | viability, T/C [7] 99.8% | viability, T/C [8] 82.1% | viability, T/C [27] 63.6% | viability, T/C [28] 57.3% | viability, T/C [9] 93.7% | viability, T/C [10] 89% | viability, T/C [11] 78.5% | viability, T/C [12] 109% | viability, T/C [29] 70.1% | viability, T/C [30] 58.9% | viability, T/C [13] 92.8% | viability, T/C [14] 117% | viability, T/C [15] 91% | viability, T/C [16] 84.3% | viability, T/C [31] 75.8% | viability, T/C [32] 81.1% | viability, T/C [17] 83.2% | viability, T/C [18] 93.6% | viability, T/C [19] 76.5% | viability, T/C [20] 73.1% | viability, T/C [33] 71.8% | viability, T/C [34] 71.3% | viability, T/C [21] 80.7% | viability, T/C [22] 99.1% | viability, T/C [23] 96.8% | viability, T/C [24] 86.2% | viability, T/C [35] 81.4% | viability, T/C [36] 66.9%
> 10 µM: IC50 (second compound 0.000949 µM) | IC50 (second compound 0.003 µM) | IC50 (second compound 0.00949 µM) | IC50 (second compound 0.03 µM) | IC50 (second compound 0.0949 µM) | IC50 (second compound 0.3 µM)

Cc1nc(N2CCC3(CC2)COC(C)C3N)c(CO)nc1Sc1ccnc(N)c1Cl (stereo unspecified) + CCn1c(-c2cccnc2C(C)OC)c2c3cc(ccc31)N1CCOC(CC(NC(=O)C(C(C)C)N(C)C(=O)C3(F)CCN(C(=O)C#CC(C)(C)N(C)C)CC3)C(=O)N3CCCC(N3)C(=O)OCC(C)(C)C2)C1
> 10 µM: IC50 (second compound 0.000949 µM) | IC50 (second compound 0.003 µM) | IC50 (second compound 0.00949 µM) | IC50 (second compound 0.03 µM) | IC50 (second compound 0.0949 µM) | IC50 (second compound 0.3 µM)
inactive: viability, T/C [1] 81% | viability, T/C [2] 93.8% | viability, T/C [3] 89.8% | viability, T/C [4] 94.2% | viability, T/C [25] 81.8% | viability, T/C [26] 80.6% | viability, T/C [5] 85.8% | viability, T/C [6] 115% | viability, T/C [7] 101% | viability, T/C [8] 85.8% | viability, T/C [27] 82.1% | viability, T/C [28] 75.1% | viability, T/C [9] 111% | viability, T/C [10] 85.1% | viability, T/C [11] 89.2% | viability, T/C [12] 99.7% | viability, T/C [29] 99.5% | viability, T/C [30] 110% | viability, T/C [13] 101% | viability, T/C [14] 83.8% | viability, T/C [15] 102% | viability, T/C [16] 87% | viability, T/C [31] 84.4% | viability, T/C [32] 83.4% | viability, T/C [17] 88.9% | viability, T/C [18] 96.2% | viability, T/C [19] 108% | viability, T/C [20] 103% | viability, T/C [33] 95.5% | viability, T/C [34] 105% | viability, T/C [21] 87.6% | viability, T/C [22] 103% | viability, T/C [23] 93% | viability, T/C [24] 100% | viability, T/C [35] 90% | viability, T/C [36] 119%
